From ChEMBL document CHEMBL1909528, “Synthesis and 2D QSAR of O-sulphonated β-aminols derivatives as novel antifungal and antibacterial agents” (Bioorg Med Chem Lett, 2011)

What was measured:
[1] = system: Cryptococcus neoformans; experiment: Antifungal activity against Cryptococcus neoformans by broth microdilution method; assay type: functional
[2] = system: Sporothrix schenckii; experiment: Antifungal activity against Sporothrix schenckii by broth microdilution method; assay type: functional, organism-based
[3] = system: Trichophyton mentagrophytes; experiment: Antifungal activity against Trichophyton mentagrophytes by broth microdilution method; assay type: functional, organism-based
[4] = system: Aspergillus fumigatus; experiment: Antifungal activity against Aspergillus fumigatus by broth microdilution method; assay type: functional
[5] = system: Candida parapsilosis; experiment: Antifungal activity against Candida parapsilosis ATCC 22019 by broth microdilution method; assay type: functional; settings: Lodderomyces parapsilosis
[6] = system: Candida albicans; experiment: Antifungal activity against Candida albicans by broth microdilution method; assay type: functional, organism-based
[7] = system: Staphylococcus aureus; experiment: Antibacterial activity against Staphylococcus aureus ATCC 25923 by broth microdilution method; assay type: functional, organism-based
[8] = system: Escherichia coli; experiment: Antibacterial activity against Escherichia coli ATCC 9637 by broth microdilution method; assay type: functional, organism-based

Compound | MIC [1] [µM] | MIC [2] [µM] | IC50 ([2]; read-out: IC50) [µM] | IC50 ([2]; read-out: pIC50 (converted)) [µM] | MIC [3] [µM] | IC50 ([3]; read-out: IC50) [µM] | IC50 ([3]; read-out: pIC50 (converted)) [µM] | MIC [4] [µM] | MIC [5] [µM] | MIC [6] [µM] | IC50 ([6]; read-out: IC50) [µM] | IC50 ([6]; read-out: pIC50 (converted)) [µM] | MIC [7] [µM] | IC50 ([7]; read-out: IC50) [µM] | IC50 ([7]; read-out: pIC50 (converted)) [µM] | MIC [8] [µM] | IC50 ([8]; read-out: IC50) [µM] | IC50 ([8]; read-out: pIC50 (converted)) [µM]
O=S(=O)(OC(CNCc1ccccc1)c1ccccc1)c1cccc(Cl)c1Cl (centres undefined) | > 50 | < 50 | 15.6 | 15.6 | < 50 | 5.89 | 5.89 | > 50 | > 50 |  |  |  |  |  |  |  |  | 
O=[N+]([O-])c1cccc(S(=O)(=O)OC(CNCc2ccccc2)c2ccccc2)c1 (centres undefined) | > 50 |  |  |  |  |  |  | > 50 | > 50 | < 50 | 30.8 | 30.8 | < 50 | 0.842 | 1.19 |  |  | 
O=S(=O)(OC(CNCc1ccccc1)c1ccccc1)c1c(Cl)cccc1Cl (centres undefined) | > 50 | < 50 | 12 | 12 | < 50 | 44.7 | 44.8 | > 50 | > 50 | < 50 | 18 | 18 | < 50 | 11.6 | 11.6 |  |  | 
O=S(=O)(OC(CNCc1ccccc1)c1ccccc1)c1ccc(F)cc1 (centres undefined) | > 50 |  |  |  | < 50 | 10.2 | 10.2 | > 50 | > 50 | < 50 | 41.9 | 41.9 | < 50 | 22.6 | 22.6 |  |  | 
CC(C)(C)OC(=O)N(Cc1ccccc1)CC(OS(=O)(=O)c1c(Cl)cccc1Cl)c1ccccc1 (centres undefined) | > 50 | < 50 | 11.4 | 11.4 |  |  |  | > 50 | > 50 |  |  |  |  |  |  | < 50 | 3.13 | 3.13
CC(C)(C)OC(=O)N(Cc1ccccc1)CC(OS(=O)(=O)c1ccc(F)cc1)c1ccccc1 (centres undefined) | > 50 | < 50 | 8.66 | 8.66 | < 50 | 0.46 |  | > 50 | > 50 | < 50 | 1.52 | 1.52 |  |  |  | < 50 | 0.83 | 1.2
CC(C)(C)OC(=O)N(Cc1ccccc1)CC(OS(=O)(=O)c1cccc2ccccc12)c1ccccc1 (centres undefined) | > 50 |  |  |  | < 50 | 5.48 | 5.48 | > 50 | > 50 |  |  |  |  |  |  | < 50 | 1.26 | 1.26
CC(C)(C)OC(=O)N(Cc1ccccc1)CC(OS(=O)(=O)c1ccccc1C(F)(F)F)c1ccccc1 (centres undefined) | > 50 | < 50 | 28.4 | 28.4 | < 50 | 24.4 | 24.4 | > 50 | > 50 | < 50 | 6.44 | 6.44 |  |  |  |  |  | 
Cc1ccc(S(=O)(=O)OC(CN(Cc2ccccc2)C(=O)OC(C)(C)C)c2ccccc2)cc1 (centres undefined) | > 50 | < 50 | 32.7 | 32.7 | < 50 | 11.7 | 11.7 | > 50 | > 50 | < 50 | 4.07 | 4.07 |  |  |  | < 50 | 7.5 | 7.5
CC(C)c1cc(C(C)C)c(S(=O)(=O)OC(CN(Cc2ccccc2)C(=O)OC(C)(C)C)c2ccccc2)c(C(C)C)c1 (centres undefined) | > 50 | < 50 | 46.4 | 46.4 | < 50 | 6.11 | 6.11 | > 50 | > 50 | < 50 | 12.5 | 12.5 |  |  |  |  |  | 
COc1ccc(CN(CC(OS(=O)(=O)c2cccc([N+](=O)[O-])c2)c2ccccc2)C(=O)OC(C)(C)C)cc1 (centres undefined) | > 50 | < 50 | 6.24 | 6.24 | < 50 | 2.24 | 2.24 | > 50 | > 50 |  |  |  |  |  |  |  |  | 
CC(C)(C)OC(=O)N(Cc1ccc(F)cc1)CC(OS(=O)(=O)c1c(Cl)cccc1Cl)c1ccccc1 (centres undefined) | > 50 |  |  |  |  |  |  | > 50 | > 50 |  |  |  | < 50 | 12.5 | 12.5 |  |  | 
CC(C)(C)OC(=O)N(Cc1ccc(F)cc1)CC(OS(=O)(=O)c1ccc(F)cc1)c1ccccc1 (centres undefined) | > 50 |  |  |  |  |  |  | > 50 | > 50 |  |  |  | < 50 | 22.6 | 22.6 |  |  | 
COc1ccc(C(CN(Cc2ccccc2)C(=O)OC(C)(C)C)OS(=O)(=O)c2c(Cl)cccc2Cl)cc1 (centres undefined) | > 50 |  |  |  | < 50 | 13.5 | 13.6 | > 50 | > 50 |  |  |  |  |  |  |  |  | 
Cc1ccc(C(CN(Cc2ccccc2)C(=O)OC(C)(C)C)OS(=O)(=O)c2cccc(Cl)c2Cl)cc1 (centres undefined) | > 50 | < 50 | 10.7 | 10.7 |  |  |  | > 50 | > 50 |  |  |  |  |  |  |  |  | 

Results, then the compound that gave them:

MIC [1] [µM] | MIC [2] [µM] | IC50 ([2]; read-out: IC50) [µM] | IC50 ([2]; read-out: pIC50 (converted)) [µM] | MIC [3] [µM] | IC50 ([3]; read-out: IC50) [µM] | IC50 ([3]; read-out: pIC50 (converted)) [µM] | MIC [4] [µM] | MIC [5] [µM] | MIC [6] [µM] | IC50 ([6]; read-out: IC50) [µM] | IC50 ([6]; read-out: pIC50 (converted)) [µM] | MIC [7] [µM] | IC50 ([7]; read-out: IC50) [µM] | IC50 ([7]; read-out: pIC50 (converted)) [µM] | MIC [8] [µM] | IC50 ([8]; read-out: IC50) [µM] | IC50 ([8]; read-out: pIC50 (converted)) [µM] | Compound
> 50 | < 50 | 26.7 | 26.7 | < 50 | 0.33 |  | > 50 | > 50 |  |  |  |  |  |  |  |  |  | CC(C)(C)OC(=O)N(Cc1ccccc1)CC(OS(=O)(=O)c1cccc(Cl)c1Cl)c1ccccc1 (centres undefined)
> 50 | < 50 | 5.95 | 5.95 |  |  |  | > 50 | > 50 |  |  |  |  |  |  |  |  |  | CC(C)(C)OC(=O)N(Cc1ccccc1)CC(OS(=O)(=O)c1cccc([N+](=O)[O-])c1)c1ccccc1 (centres undefined)
> 50 | < 50 | 31.2 | 31.2 | < 50 | 12.6 | 12.6 | > 50 | > 50 | < 50 | 41.6 | 41.6 |  |  |  |  |  |  | Cc1cc(C)cc(S(=O)(=O)OC(CN(Cc2ccccc2)C(=O)OC(C)(C)C)c2ccccc2)c1 (centres undefined)
> 50 |  |  |  | < 50 | 5.73 | 5.73 | > 50 | > 50 |  |  |  |  |  |  | < 50 | 9.02 | 9.02 | CC(C)(C)OC(=O)N(Cc1ccccc1)CC(OS(=O)(=O)c1ccc([N+](=O)[O-])cc1)c1ccccc1 (centres undefined)
> 50 | < 50 | 32.7 | 32.7 | < 50 | 9.48 | 9.48 | > 50 | > 50 | < 50 | 8.59 | 8.59 |  |  |  | < 50 | 18.5 | 18.5 | CC(C)(C)OC(=O)N(Cc1ccccc1)CC(OS(=O)(=O)c1ccc(C#N)cc1)c1ccccc1 (centres undefined)
> 50 |  |  |  | < 50 | 2.12 | 2.12 | > 50 | > 50 |  |  |  |  |  |  | < 50 | 3.54 | 3.54 | CC(C)(C)OC(=O)N(Cc1ccccc1)CC(OS(=O)(=O)c1ccc2ccccc2c1)c1ccccc1 (centres undefined)
> 50 |  |  |  |  |  |  | > 50 | > 50 | < 50 | 0.54 |  |  |  |  | < 50 | 23.3 | 23.3 | CC(C)(C)OC(=O)N(Cc1ccccc1)CC(OS(=O)(=O)c1ccc([N+](=O)[O-])cc1[N+](=O)[O-])c1ccccc1 (centres undefined)
> 50 | < 50 | 23.2 | 23.1 | < 50 | 2.76 | 2.76 | > 50 | > 50 |  |  |  |  |  |  |  |  |  | COc1ccc(CN(CC(OS(=O)(=O)c2ccc(F)cc2)c2ccccc2)C(=O)OC(C)(C)C)cc1 (centres undefined)
> 50 | < 50 | 7.46 | 7.46 | < 50 | 0.53 |  | > 50 | > 50 |  |  |  | < 50 | 14.7 | 14.7 |  |  |  | CC(C)(C)OC(=O)N(Cc1ccc(F)cc1)CC(OS(=O)(=O)c1cccc(Cl)c1Cl)c1ccccc1 (centres undefined)
> 50 |  |  |  |  |  |  | > 50 | > 50 |  |  |  | < 50 | 39.9 | 39.8 |  |  |  | CC(C)(C)OC(=O)N(Cc1ccc(F)cc1)CC(OS(=O)(=O)c1cccc([N+](=O)[O-])c1)c1ccccc1 (centres undefined)
> 50 | < 50 | 23.3 | 23.3 |  |  |  | > 50 | > 50 |  |  |  |  |  |  |  |  |  | CC(C)(C)OC(=O)N(Cc1ccc(Cl)c(Cl)c1)CC(OS(=O)(=O)c1cccc(Cl)c1Cl)c1ccccc1 (centres undefined)
> 50 | < 50 | 24.4 | 24.4 |  |  |  | > 50 | > 50 |  |  |  |  |  |  |  |  |  | CC(C)(C)OC(=O)N(Cc1ccc(Cl)c(Cl)c1)CC(OS(=O)(=O)c1cccc([N+](=O)[O-])c1)c1ccccc1 (centres undefined)
> 50 | < 50 | 43.3 | 43.3 |  |  |  | > 50 | > 50 |  |  |  | < 50 | 15.3 | 15.3 |  |  |  | CC(C)(C)OC(=O)N(Cc1ccc(Cl)c(Cl)c1)CC(OS(=O)(=O)c1ccc(F)cc1)c1ccccc1 (centres undefined)
> 50 |  |  |  | < 50 | 22.8 | 22.9 | > 50 | > 50 |  |  |  |  |  |  |  |  |  | COc1ccc(C(CN(Cc2ccccc2)C(=O)OC(C)(C)C)OS(=O)(=O)c2ccc(F)cc2)cc1 (centres undefined)
> 50 | < 50 | 13.4 | 13.4 | < 50 | 14.9 | 14.9 | > 50 | > 50 |  |  |  |  |  |  |  |  |  | COc1ccc(C(CN(Cc2ccccc2)C(=O)OC(C)(C)C)OS(=O)(=O)c2cccc(Cl)c2Cl)cc1 (centres undefined)
> 50 |  |  |  | < 50 | 4.39 | 4.4 | > 50 | > 50 |  |  |  |  |  |  |  |  |  | Cc1ccc(C(CN(Cc2ccccc2)C(=O)OC(C)(C)C)OS(=O)(=O)c2c(Cl)cccc2Cl)cc1 (centres undefined)
